Laboratory results as given in the supplement of paper PMC10307832.

Columns and labels:
Assay in all cases: relative viability (nuclei count vs DMSO), 5 days (fraction); higher = more cells survive
[1] = compound: Cc1cc([C@@H](C)Nc2ccccc2C(=O)O)c2nc(N3CCOCC3)cc(=O)n2c1 [AZD6482] + CCNC(=O)c1noc(-c2cc(C(C)C)c(O)cc2O)c1-c1ccc(CN2CCOCC2)cc1 [Luminespib] (partner 0.01 µM)
Method in brief: (§1)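 After 5 days of treatment, lung cancer cells in 1536-well plates were fixed and stained in a single step (final 0.05% Triton X-100, 1% formaldehyde, 1 ug/ml Hoechst) and their nuclei counted on 4× images. Treatment had been applied by pin tool the day after seeding as one drug alone or as a fixed anchor-drug dose with five library-drug doses (not always all listed) in √10 steps. Relative viability is the nuclei count of treated wells divided by that of vehicle wells, and values are medians of duplicate plates.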

[2] = compound: Cc1cc([C@@H](C)Nc2ccccc2C(=O)O)c2nc(N3CCOCC3)cc(=O)n2c1 [AZD6482] + Cc1nc(NC(=O)N2CCC[C@H]2C(N)=O)sc1-c1ccnc(C(C)(C)C(F)(F)F)c1 [Alpelisib] (partner 2 µM)
Method in brief: as §1

[3] = compound: COc1cc2nc(N3CCCN(C)CC3)nc(NC3CCN(Cc4ccccc4)CC3)c2cc1OC + N=C(N)NC(=N)NCCc1ccccc1 [Phenformin] (partner 250 µM)
Method in brief: as §1

[4] = compound: COc1cc2nc(N3CCCN(C)CC3)nc(NC3CCN(Cc4ccccc4)CC3)c2cc1OC + CC1(C)CCC(c2ccc(Cl)cc2)=C(CN2CCN(c3ccc(C(=O)NS(=O)(=O)c4ccc(N[C@H](CCN5CCOCC5)CSc5ccccc5)c(S(=O)(=O)C(F)(F)F)c4)cc3)CC2)C1 [Navitoclax] (partner 0.5 µM)
Method in brief: as §1

Cell Line | relative viability ([1]; first compound 0.08 µM) | relative viability ([1]; first compound 0.253 µM) | relative viability ([1]; first compound 0.8 µM) | relative viability ([1]; first compound 2.53 µM) | relative viability ([1]; first compound 8 µM) | relative viability ([2]; first compound 0.08 µM) | relative viability ([2]; first compound 0.253 µM) | relative viability ([2]; first compound 0.8 µM) | relative viability ([2]; first compound 2.53 µM) | relative viability ([2]; first compound 8 µM) | relative viability ([3]; first compound 0.2 µM) | relative viability ([3]; first compound 0.6325 µM) | relative viability ([3]; first compound 2 µM) | relative viability ([3]; first compound 6.325 µM) | relative viability ([4]; first compound 0.2 µM) | relative viability ([4]; first compound 0.6325 µM) | relative viability ([4]; first compound 2 µM) | relative viability ([4]; first compound 6.325 µM)
201T | 0.995 | 0.982 | 1.01 | 0.847 | 1.02 | 0.908 | 0.809 | 0.842 | 0.714 | 0.848 | 0.464 | 0.414 | 0.462 | 0.442 | 1.2 | 1.2 | 1.23 | 1.15
A549 |  |  |  |  |  | 0.585 | 0.552 | 0.43 | 0.275 | 0.361 | 0.185 | 0.165 | 0.195 | 0.146 | 1.24 | 1.13 | 1.14 | 1.06
A-427 | 0.974 | 0.79 | 0.986 |  | 0.677 | 1.08 | 0.967 | 1.04 | 0.952 | 1.06 | 0.337 | 0.422 | 0.305 | 0.247 | 1.04 | 0.966 | 1 | 0.948
ABC-1 | 0.668 | 0.521 | 0.438 | 0.55 | 0.461 | 0.741 | 0.819 | 1.05 | 0.702 | 0.826 | 0.223 | 0.2 | 0.26 | 0.319 |  |  |  | 
BEN | 0.399 | 0.193 | 0.522 | 0.177 | 0.334 | 0.866 | 0.886 | 1.11 | 0.828 | 0.947 | 0.252 | 0.251 | 0.229 | 0.276 | 0.0596 | 0.0723 | 0.0708 | 0.0777
CAL-12T | 0.476 | 0.204 | 0.338 | 0.171 | 0.325 | 0.902 | 0.661 | 0.901 | 0.535 | 0.721 | 0.503 | 0.606 | 0.686 | 0.532 | 1.28 | 1.23 | 1.27 | 1.19
COR-L23 | 0.635 | 0.688 | 0.768 | 0.519 | 0.636 | 0.461 | 0.737 | 0.854 | 0.494 | 0.76 | 0.456 | 0.446 | 0.494 | 0.398 | 1.05 | 1.08 | 1.15 | 1.08
COR-L 105 | 0.75 | 0.867 | 1.04 | 0.46 | 0.663 | 0.771 | 0.837 | 0.784 | 0.517 | 0.728 | 0.461 | 0.514 | 0.472 | 0.343 | 0.925 | 0.749 | 0.938 | 0.486
Calu-6 |  |  |  |  |  | 0.812 | 0.847 | 0.873 | 0.75 | 0.926 |  |  |  |  | 0.84 | 0.809 | 0.763 | 0.602
ChaGo-K-1 | 0.486 | 0.526 | 0.574 | 0.593 | 0.501 |  |  |  |  |  | 0.51 | 0.494 | 0.492 | 0.498 | 0.987 | 1.05 | 1.13 | 0.72
EBC-1 |  |  |  |  |  | 0.32 | 0.346 | 0.27 | 0.177 | 0.299 |  |  |  |  | 0.408 | 0.386 | 0.382 | 0.165
EKVX | 0.778 | 0.748 | 0.74 | 0.625 | 0.557 | 0.516 | 0.46 | 0.591 | 0.336 | 0.581 | 0.233 | 0.235 | 0.233 | 0.24 | 0.826 | 0.926 | 1.04 | 0.881
EMC-BAC-2 | 1.01 | 1.05 | 1.18 | 0.805 | 0.787 | 0.639 | 0.624 | 0.619 | 0.571 | 0.617 | 0.531 | 0.477 | 0.496 | 0.523 | 1.16 | 1.14 | 1.14 | 1.17
EPLC-272H | 0.347 | 0.164 | 0.21 | 0.179 | 0.256 | 0.593 |  | 0.554 | 0.436 | 0.577 | 0.353 | 0.335 | 0.318 | 0.348 | 1.08 | 1.06 | 1.22 | 1.02
H3255 | 0.986 | 0.761 | 0.806 | 0.529 | 0.799 | 0.531 | 0.54 | 0.614 | 0.335 | 0.496 | 0.332 | 0.372 | 0.362 | 0.344 | 0.517 | 0.59 | 0.669 | 0.544
HARA | 0.58 | 0.636 | 0.57 | 0.627 | 0.419 | 0.459 | 0.762 | 0.849 |  | 0.708 | 0.474 | 0.425 | 0.494 | 0.462 | 1.13 | 1.08 | 1.24 | 1.15
HCC-15 | 0.425 | 0.229 | 0.275 | 0.239 | 0.43 | 0.856 | 0.797 | 0.861 | 0.736 | 0.772 | 0.443 | 0.485 | 0.572 | 0.463 | 0.725 | 0.749 | 0.765 | 0.487
HCC-44 | 0.941 | 1.12 | 0.98 | 0.824 | 1.1 | 0.546 | 0.596 | 0.649 | 0.505 | 0.435 | 0.252 | 0.376 | 0.339 | 0.27 | 0.908 | 0.968 | 1.02 | 0.945
HCC-78 |  |  |  |  |  | 0.222 | 0.179 | 0.212 | 0.159 | 0.194 | 0.73 | 0.793 | 0.675 | 0.777 | 0.844 | 0.779 | 0.717 | 0.602
HCC-366 |  |  |  |  |  | 0.171 | 0.165 | 0.208 | 0.105 | 0.188 | 0.577 | 0.576 | 0.613 | 0.639 | 1.04 | 1.12 | 1.21 | 1.05
